The target in assay [1] is T1, recombinant human-5HT1A receptors (Homo sapiens, UniProt P08908).
T1 construct: expressed in transfected cells; host or cells: 3T3 cells of mice (membranes)
T1 sequence (P08908 1-422): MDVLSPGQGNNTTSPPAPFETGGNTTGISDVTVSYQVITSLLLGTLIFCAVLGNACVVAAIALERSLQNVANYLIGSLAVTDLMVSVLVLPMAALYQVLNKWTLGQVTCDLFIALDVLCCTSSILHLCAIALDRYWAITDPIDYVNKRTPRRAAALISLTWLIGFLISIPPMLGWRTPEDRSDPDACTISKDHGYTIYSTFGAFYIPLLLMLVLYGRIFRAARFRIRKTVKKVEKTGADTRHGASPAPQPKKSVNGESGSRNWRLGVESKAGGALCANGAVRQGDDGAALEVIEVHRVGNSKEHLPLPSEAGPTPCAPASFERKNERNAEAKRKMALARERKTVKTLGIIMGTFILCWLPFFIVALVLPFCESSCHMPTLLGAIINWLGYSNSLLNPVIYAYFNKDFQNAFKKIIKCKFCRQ
Nature of the assay: Displacement assay with [3H]-5-HT (1 nM) on recombinant human 5HT1A receptors expressed in 3T3 cells of mice (test method a). Type of assay: binding. The method, then: (§1) The binding of compounds of formula I in accordance with the invention to serotonin receptors was determined in vitro by standard methods. The compounds were investigated in accordance with the assays given hereinafter:
[L] is the concentration of ligand and the KD value is the dissociation constant of the ligand.

Assay [2] addresses 5HT2C receptor. Nature of the assay: [3H]-5-HT binding assay, 5HT2C receptor (test method b). The settings on record: radioligand [3H]-5-HT, pki = -log10 Ki. The method, then:
as §1
b) For the binding to the 5HT2C receptor in accordance with the [3H]-5-HT binding assay according to the method of S.J Peroutka et al., Brain Research 584, 191-196 (1992).
(§2) The pki values (pki =-log10 Ki) of the test substances are given. The ki value is defined by the following formula: [formula] in which the IC50 values are those concentrations of test compounds in nmol by which 50% of the receptor-bound ligands are displaced. [L] is the concentration of ligand and the KD value is the dissociation constant of the ligand.

The next assay deals with 5HT2A receptor (Homo sapiens, UniProt P28223). Nature of the assay: [3H]-DOB binding assay, 5HT2A receptor (test method c). The method, then:
as §1
c) For the binding to the 5HT2A receptor in accordance with the [3H]-DOB binding assay according to the method of T. Branchek et al., Molecular Pharmacology 38, 604-609 (1990).
as §2

In assay [3] the target is T2, 5HT2C receptor (Rattus norvegicus, UniProt P08909).
T2 construct: from tissue; host or cells: living rats (in vivo, s.c. dosing)
T2 sequence (P08909 33-460): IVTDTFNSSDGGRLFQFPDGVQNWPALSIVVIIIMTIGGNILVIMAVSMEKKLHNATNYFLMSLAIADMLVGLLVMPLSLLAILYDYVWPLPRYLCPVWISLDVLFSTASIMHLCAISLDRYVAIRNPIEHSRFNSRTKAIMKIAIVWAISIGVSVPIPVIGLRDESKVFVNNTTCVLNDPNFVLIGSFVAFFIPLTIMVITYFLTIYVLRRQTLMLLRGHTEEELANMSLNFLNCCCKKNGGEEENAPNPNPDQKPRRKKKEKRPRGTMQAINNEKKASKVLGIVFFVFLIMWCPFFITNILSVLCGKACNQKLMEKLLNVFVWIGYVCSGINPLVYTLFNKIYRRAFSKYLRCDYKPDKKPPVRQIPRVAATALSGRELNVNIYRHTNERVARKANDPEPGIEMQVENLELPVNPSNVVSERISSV
The experiment in a line: Penile erection (rats). Type of assay: in vivo. To be noted: 0.75 h, within 45 minutes after administration. The method, then: It has been shown that penile erection is dependent on stimulation of the 5HT2C receptor (see Berendsen & Broekkamp, Eur. J. Pharmacol. 135, 179-184 (1987)).
The number of penile erections was determined within 45 minutes after administration of the test substance. The ED50 is the dose which causes 50% of these erections.

The mark [4] stands for this setting: po, p.o., read-out: ED50 penile erection, p.o.
[5] abbreviates: sc, s.c., read-out: ED50 penile erection, s.c.
Where [6] appears, read: 5HT1A, radioligand [3H]-5-HT (1 nM), pki = -log10 Ki, read-out: pKi, test method a (converted).

Counter-ions that a name gives are not always drawn. Like-named read-outs stand apart in the source and are kept apart here.

5HT2A receptor, sequence (P28223 whole entry): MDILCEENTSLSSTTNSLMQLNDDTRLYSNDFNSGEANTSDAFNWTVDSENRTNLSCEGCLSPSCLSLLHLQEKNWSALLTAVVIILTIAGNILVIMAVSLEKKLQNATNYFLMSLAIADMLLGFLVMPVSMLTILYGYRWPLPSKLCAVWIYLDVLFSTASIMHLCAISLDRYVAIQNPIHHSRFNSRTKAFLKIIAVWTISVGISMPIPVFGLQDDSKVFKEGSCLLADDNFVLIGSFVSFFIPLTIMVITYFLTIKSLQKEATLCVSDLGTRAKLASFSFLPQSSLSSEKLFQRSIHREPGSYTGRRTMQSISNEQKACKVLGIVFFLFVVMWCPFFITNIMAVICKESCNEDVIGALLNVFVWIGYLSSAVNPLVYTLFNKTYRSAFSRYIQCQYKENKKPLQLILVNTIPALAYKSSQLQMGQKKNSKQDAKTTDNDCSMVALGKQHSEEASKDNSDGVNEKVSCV

The term ED50 denotes the dose at which the effect has come halfway, by size or by number of responders. With `COc1ccc2c(c1)-c1c(cnn1CC(C)N)C2` (racemic) [Example 1, (RS)-2-(7-methoxy-1,4-dihydro-indeno[2,1-c]pyrazol-1-yl)-1-methyl-ethylamine fumarate (1:1)], the figures for the Ki (in assay [1]; at 5HT2A receptor) were 355 nM and 93.3 nM, respectively. The “pKi, test method b” value at 5HT2C receptor [2] turned out to be 8.26. Besides, the values for the ED50 at 5HT2C receptor [3] (setting [4]) and on 5HT2C receptor [3] (setting [5]) were 3.2 mg/kg and 0.32 mg/kg, respectively.
`Cc1ccc2c(c1)-c1c(cnn1CC(C)N)C2(C)C` (racemic) [Example 5, (RS)-2-(4,4,7-trimethyl-1,4-dihydroindeno[2,1-c]pyrazol-1-yl)-1-methyl-ethylamine fumarate (1:1)]: the figures for the Ki (in assay [1] (setting [6]); on 5HT2A receptor) were 631 nM and 191 nM, respectively. In addition, the “pKi, test method b” value at 5HT2C receptor [2] came to 7.90.
In the case of `COc1ccc2c(c1)-c1c(cnn1CC(C)N)C2(C)C` (racemic) [Example 6, (RS)-2-(7-methoxy-4,4-dimethyl-1,4-dihydroindeno[2,1-c]pyrazol-1-yl)-1-methyl-ethylamine fumarate (1:1)], the Ki in assay [1] was 1820 nM; at 5HT2A receptor, 49 nM. In addition, the “pKi, test method b” value at 5HT2C receptor [2] stood at 8.33.
For `COc1ccc2c(c1)-c1c(c(C)nn1CC(C)N)C2` (racemic) [Example 8] the same measures were 6760 nM, 832 nM and 7.13.
On to `Cc1ccc2c(c1)-c1c(cnn1CC(C)N)C2` (racemic) [Example 10, (RS)-2-(7-methyl-1,4-dihydroindeno[2,1-c]pyrazol-1-yl)-1-methyl-ethylamine fumarate (1:1)], for which the Ki in assay [1] (setting [6]) was 1660 nM; on 5HT2A receptor, 50.1 nM. Moreover, at 5HT2C receptor [2], the “pKi, test method b” value was determined as 8.32.
For `CC(N)Cn1ncc2c1-c1cc(F)ccc1C2` (racemic) [Example 11, (RS)-2-(7-fluoro-1,4-dihydroindeno[2,1-c]pyrazol-1-yl)-1-methyl-ethylaminefumarate (1:1)], the Ki was 1780 nM in assay [1] (setting [6]) and 263 nM at 5HT2A receptor. Moreover, the “pKi, test method b” value on 5HT2C receptor [2] was 7.51.
For `CC(N)Cn1ncc2c1-c1cc(F)ccc1C2(C)C` (racemic) [Example 12, (RS)-2-(7-fluoro-4,4-dimethyl-1,4-dihydroindeno[2,1-c]pyrazol-1-yl)-1-methyl-ethylamine fumarate (1:1)], the results for the Ki (in assay [1]; on 5HT2A receptor) were 1230 nM and 141 nM, respectively. For the same compound, the “pKi, test method b” value on 5HT2C receptor [2] was 7.72.
As for `CCOc1ccc2c(c1)-c1c(cnn1CC(C)N)C2` (racemic) [Example 13, (RS)-2-(7-ethoxy-1,4-dihydroindeno[2,1-c]pyrazol-1-yl)-1-methyl-ethylaminefumarate (1:1)], the Ki in assay [1] (setting [6]) is 1200 nM; on 5HT2A receptor, 49 nM. Moreover, the “pKi, test method b” value on 5HT2C receptor [2] came out at 8.38. The values for the ED50 at 5HT2C receptor [3] (setting [4]) and at 5HT2C receptor [3] (setting [5]) were 2.7 mg/kg and 0.5 mg/kg, respectively.
Turning to `COc1ccc2c(c1)Cc1cnn(CC(C)N)c1-2` (racemic) [Example 14, (RS)-2-(6-methoxy-1,4-dihydroindeno[2,1-c]pyrazol-1-yl)-1-methyl-ethylamine fumarate (1:1)], the Ki in assay [1] (setting [6]) was 2340 nM; at 5HT2A receptor it was 1550 nM. Also, the “pKi, test method b” value at 5HT2C receptor [2] worked out at 6.70.
`COc1ccc2c(c1)-c1c(cnn1CC(C)N)CC2.O=C(O)/C=C/C(=O)O` (racemic) [Example 15, (RS)-2-(4,5-dihydro-8-methoxy-1H-benz[g]indazol-1-yl)-1-methyl-ethylamine fumarate (1:1)]: the Ki in assay [1] is 1290 nM; at 5HT2A receptor, 81.3 nM. The “pKi, test method b” value at 5HT2C receptor [2] came to 8.28.
Take `COc1ccc2ccc3cnn(CC(C)N)c3c2c1` (racemic) [Example 16, (RS)-2-(8-methoxy-1H-benz[g]indazol-1-yl)-1-methyl-ethylamine fumarate (1:0.5)]: the Ki in assay [1] is 200 nM; on 5HT2A receptor it was 25.1 nM. Also, on 5HT2C receptor [2], the “pKi, test method b” value worked out at 8.94.
In the case of `COc1ccc2c(c1)-c1c(cnn1C[C@H](C)N)C2` [Example 2, (S)-2-(7-methoxy-1,4-dihydro-indeno[2,1-c]pyrazol-1-yl)-1-methyl-ethylamine fumarate (1:1)], the Ki in assay [1] is 339 nM; at 5HT2A receptor it was 49 nM. For the same compound, the “pKi, test method b” value on 5HT2C receptor [2] is given as 8.57. Also, the ED50 was found to be 1.4 mg/kg at 5HT2C receptor [3] (setting [4]) and 0.32 mg/kg on 5HT2C receptor [3] (setting [5]).
For `Cc1ccc2c(c1)-c1c(cnn1C[C@H](C)N)C2(C)C` [Example 3, (S)-2-(4,4,7-trimethyl-1,4-dihydro-indeno[2,1-c]pyrazol-1-yl)-1-methyl-ethylamine fumarate (1:1)], the values for the Ki (in assay [1] (setting [6]); on 5HT2A receptor) were 4170 nM and 229 nM, respectively. In addition, the “pKi, test method b” value on 5HT2C receptor [2] is reported as 8.32.
As to `COc1ccc2c(c1)-c1c(cnn1C[C@H](C)N)C2(C)C` [Example 4, (S)-2-(7-methoxy-4,4-dimethyl-1,4-dihydroindeno[2,1-c]pyrazol-1-yl)-1-methyl-ethylamine fumarate (1:1)], the Ki in assay [1] was 2630 nM; at 5HT2A receptor, 37.2 nM. Further, on 5HT2C receptor [2], the “pKi, test method b” value amounted to 8.65.
On to `COc1ccc2c(c1)-c1c(cnn1C[C@@H](C)N)C2` [Example 7, (R)-2-(7-methoxy-1,4-dihydro-indeno[2,1-c]pyrazol-1-yl)-1-methyl-ethylamine fumarate (1:1)], for which the Ki in assay [1] was 2450 nM; on 5HT2A receptor, 363 nM. On 5HT2C receptor [2], the “pKi, test method b” value was 7.73.
Consider `CCOc1ccc2c(c1)-c1c(cnn1C[C@@H](C)N)C2` [Example 17, (R)-2-(7-ethoxy-1,4-dihydro-indeno[2,1-c]pyrazol-1-yl)-1-methyl-ethylaminefumarate (1:1)], for which, on 5HT2C receptor [2], the “pKi, test method b” value is given as 7.40. At 5HT2A receptor, this compound gave a Ki of 209 nM.
As to `CCOc1ccc2c(c1)-c1c(cnn1C[C@H](C)N)C2` [Example 18, (S)-2-(7-ethoxy-1,4-dihydro-indeno[2,1-c]pyrazol-1-yl)-1-methyl-ethylaminefumarate (1:1)], the Ki is 1000 nM in assay [1] (setting [6]) and 49 nM on 5HT2A receptor. Moreover, the “pKi, test method b” value on 5HT2C receptor [2] is 8.48. Moreover, the ED50 came out at 2.3 mg/kg on 5HT2C receptor [3] (setting [4]) and 0.7 mg/kg at 5HT2C receptor [3] (setting [5]).

These data come from US5561150A, “Tricyclic pyrazole derivatives” (Hoffman-La Roche Inc., priority 1994, dated 1996).
